Literature values as cited in paper PMC6985722 (Antimicrobial Agents and Chemotherapy, 2020).

Tests used:
RSV = test system: RSV; set-up: method as in ref 21 = [21]; 21. Hanfelt-Goade D , Maimon N , Nimer A , Riviere F , Catherinot E , Ison M , Jeong SH , Walsh E , Gafter-Gvili A , Nama SR , Napora P , Chowers M , Bergeron A , Zeltser D , Moudgil H , Limaye AP , C; settings: hospitalized RSV-infected adults treated relatively late; cited from earlier work
[1] = cited from earlier work

Compound	Viral load and clinical outcomes (RSV)	Terminal half-life [1]
Cc1cn2nc([C@@H]3CCCCN3C(=O)c3cc(Cl)ccc3NS(C)(=O)=O)cc2nc1N1CC[C@H](N)C1 [GS-5806]	failed to significantly reduce the viral load or improve clinical outcomes	
CC(C)C(=O)OC[C@@]1(CCl)O[C@@H](n2ccc(N)nc2=O)[C@H](F)[C@@H]1OC(=O)C(C)C [ALS-008176]		63 h
